{"source": "patent US10081609B2", "about": "“Compounds for inducing proliferation and differentiation of cells, and methods of use thereof” (The Broad Institute, Inc., priority 2013, dated 2018)", "key": {"[1]": {"test_system": "human primary hepatocytes", "test": "Expansion of human primary hepatocytes on growth-arrested J2-3T3 feeder layer in 12-well plates (imaging, cell counting, FACS, biochemical assays)", "format": "cell-based", "procedure": "Culture media were collected and frozen at −20° C. until analysis. Albumin content was measured through sandwich ELISA assays (MP Biomedicals, Fitzgerald, Bethyl Laboratories) using horseradish peroxidase detection and 3,3′,5,5′-tetramethylbenzidine (TMB, Fitzgerald Industries) as a substrate. Urea concentration was determined colorimetrically using diacetylmonoxime with acid and heat (Stanbio Labs). To quantify CYP450 activity, at 48 hours after small molecule exposure, cultures were incubated with substrates (coumarin from Sigma for CYP2A6, luciferin-IPA from Promega for CYP3A4) for 4 hours at 37° C. Incubation medium was collected and metabolite concentration quantified via luminescence, or fluorescence after hydrolization of potential metabolite conjugates by β-glucuronidase/arylsulfatase (Roche, Ind.).\nTo characterize the effects of FPH1 and FPH2 outside of the screening platform, human primary hepatocytes were seeded at a density of ˜20,000 cells/cm^2, into standard 12-well tissue culture plates on top of a feeder layer of growth-arrested J2-3T3s. These cells were cultured for 7 days, during which time a single compound/FPH was supplemented into the media on days 1 and 5 at a concentration of 20 μM. Treated hepatocyte colonies increased in size over time, with more hepatocytes populating each colony (FIG. 2D, 2E).\nTo characterize the degree of proliferation and to obtain a doubling time, cells were counted and fluorescence-activated cell sorting (FACS) was performed (FIG. 2H). For cell counting, FPH-treated cells were trypsinized after seven days in culture. The number of cells was quantified using an automated cell counter. The number of hepatocytes was obtained by subtracting the number of fibroblasts from the total number of cells found in the corresponding co-culture. For FACS analysis, growth arrested J2-3T3s were labeled with CM-DiI prior to initiation of co-culture so that hepatocytes can be identified via negative selection. To enable cell counting during FACS, each sample was supplemented with fluorescent counting beads. […] Over 7 days, FPH1 induced hepatocyte doublings at a rate that is consistent with reported liver regeneration kinetics in vivo.\nTo assess the phenotype of the treated hepatocytes, imaging, biochemical analyses and gene expression profiling were performed. […] Albumin secretion and urea synthesis, a surrogate marker of nitrogen metabolism, were both stable throughout FPH treatment (FIG. 3A top and middle). Metabolic functions were assessed via examinations of cytochrome P450 (CYP450) activity and canalicular transport. […] Gene expression profiling confirmed that there are no significant differences between FPH-treated and untreated hepatocytes (FIG. 3C)."}, "[2]": {"test_system": "primary human hepatocytes", "test": "Expansion of primary human hepatocytes from six additional cell sources (Ki67/albumin staining, FACS)", "format": "cell-based", "procedure": "On day seven, the number of hepatocytes was quantified by FACS analysis (FIG. 6B). Day one untreated controls was added to the bar graph for reference."}, "[3]": {"test_system": "human primary hepatocytes", "test": "High-throughput liver platform, primary screening: hepatocyte proliferation by automated high-content imaging (hepatocyte nuclei numbers)", "format": "cell-based", "conditions": "primary screening", "procedure": "In order to avoid species-specific differences and cell line mutations, the screen was conducted with human primary hepatocytes. Traditionally, chemical screening on such cells has been hindered by their availability in large quantities as well as their rapid loss of viability and phenotype in vitro. Recent advances in cryopreservation technologies allowed enough primary human cells to be stored for screening; these cells are maintained through co-cultivation with non-parenchymal cells. Co-cultures of primary human hepatocytes with murine embryonic J2-3T3 fibroblasts were recently shown to maintain normal hepatocyte phenotype for weeks. These in vitro platforms consisted of hepatocytes surrounded by a co-planar population of fibroblasts. While sufficient for stabilizing hepatocyte functions in vitro, such platforms may limit normal hepatocyte expansion due to contact inhibition. Thus, for this screen, a sparse population of hepatocytes was co-cultivated on top of a confluent feeder layer of J2-3T3 fibroblasts within 384-well plates (FIG. 1A top). This screening platform stabilized hepatocyte phenotypic functions in vitro (FIG. 1A bottom) and was compatible with two separate high-throughput readouts developed for this screen.\nThe primary readout detected hepatocyte proliferation via automated high-content imaging. This assay quantified hepatocyte nuclei numbers, using nuclear morphologies to separate the hepatocyte and fibroblast subpopulations that co-exist within the screening platform. When visualized with Hoechst stain, hepatocyte nuclei were smaller and more uniform in texture while fibroblast nuclei were larger and punctated (FIG. 1A bottom). Leveraging this distinction, automated image analyses was developed that utilized machine learning algorithms to classify nuclei types and tabulate hepatocyte nuclei numbers. […] Besides quantifying hepatocyte nuclei that have completed mitosis, the number of nuclei in the process of mitosis were also quantified. Two additional analysis pipelines were built to detect nuclear morphologies consistent with cells undergoing metaphase and anaphase.\nFIG. 1B top summarizes the workflow of the screen. Primary screening was done on human primary hepatocytes, preconditioned for seven days by non-parenchymal cells in the screening platform. Upon stabilization in vitro, cultures were treated with the chemical library for 48 hours. All compounds were tested in duplicates, at a single concentration of 15 μM. This single concentration was selected via a pilot screen of ˜2,000 small molecules. All 12,480 small molecules were initially tested on a single donor of cryopreserved hepatocytes (donor a) in order to eliminate noise from donor-to-donor variability. Following compound treatment, media supernatants were collected for functional analyses via ELISA and cultures were fixed in 4% paraformaldehyde for proliferation analyses via imaging.\nTo identify proliferation hits, three image-based readouts—one each to quantify the number of (1) hepatocyte nuclei in interphase, (2) nuclei in metaphase and (3) nuclei in anaphase—were integrated. z Scores were converted into p values, which were then used to generate ranked lists of compounds based on the efficacy and consistency of effects across the different proliferation readouts. Efficacy was assessed by the product of p values (pprod=pinter×pmeta×pana); consistency was evaluated by the maximum of p values (pmax=max(pinter, pmeta, pana). Compounds were considered proliferation hits if pprod<1×10^−6 and pmax<0.25. Functional hits were selected by an ELISA […]. Compounds with ELISA z>3.0 were eliminated as toxic. 93 compounds met all hit selection criteria, qualifying as Functional Proliferation Hits (FPH); FIG. 1B bottom illustrates the types of compounds that constituted this set of hits."}, "[4]": {"target": "SAPK4 (Homo sapiens, UniProt O15264)", "sequence (O15264 whole entry, species assumed)": "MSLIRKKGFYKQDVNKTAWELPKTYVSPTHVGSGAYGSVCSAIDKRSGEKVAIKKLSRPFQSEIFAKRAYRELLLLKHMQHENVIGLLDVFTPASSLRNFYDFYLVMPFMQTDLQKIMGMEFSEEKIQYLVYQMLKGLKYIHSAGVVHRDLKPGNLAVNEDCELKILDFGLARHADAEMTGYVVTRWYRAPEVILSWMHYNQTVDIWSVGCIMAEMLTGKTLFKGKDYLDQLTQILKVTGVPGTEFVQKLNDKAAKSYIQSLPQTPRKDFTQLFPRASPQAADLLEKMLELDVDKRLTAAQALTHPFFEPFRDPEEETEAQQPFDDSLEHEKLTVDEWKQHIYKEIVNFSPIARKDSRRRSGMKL", "test": "Kinome analysis (panel of kinases)", "format": "biochemical", "procedure": "(§1) Selected compounds of the invention (FPH1 and FPH2; both at 1 μM concentration) were screened against a panel of kinases (FIG. 17)."}, "[5]": {"target": "FMS (Homo sapiens, UniProt P07333)", "sequence (P07333 20-972, species assumed)": "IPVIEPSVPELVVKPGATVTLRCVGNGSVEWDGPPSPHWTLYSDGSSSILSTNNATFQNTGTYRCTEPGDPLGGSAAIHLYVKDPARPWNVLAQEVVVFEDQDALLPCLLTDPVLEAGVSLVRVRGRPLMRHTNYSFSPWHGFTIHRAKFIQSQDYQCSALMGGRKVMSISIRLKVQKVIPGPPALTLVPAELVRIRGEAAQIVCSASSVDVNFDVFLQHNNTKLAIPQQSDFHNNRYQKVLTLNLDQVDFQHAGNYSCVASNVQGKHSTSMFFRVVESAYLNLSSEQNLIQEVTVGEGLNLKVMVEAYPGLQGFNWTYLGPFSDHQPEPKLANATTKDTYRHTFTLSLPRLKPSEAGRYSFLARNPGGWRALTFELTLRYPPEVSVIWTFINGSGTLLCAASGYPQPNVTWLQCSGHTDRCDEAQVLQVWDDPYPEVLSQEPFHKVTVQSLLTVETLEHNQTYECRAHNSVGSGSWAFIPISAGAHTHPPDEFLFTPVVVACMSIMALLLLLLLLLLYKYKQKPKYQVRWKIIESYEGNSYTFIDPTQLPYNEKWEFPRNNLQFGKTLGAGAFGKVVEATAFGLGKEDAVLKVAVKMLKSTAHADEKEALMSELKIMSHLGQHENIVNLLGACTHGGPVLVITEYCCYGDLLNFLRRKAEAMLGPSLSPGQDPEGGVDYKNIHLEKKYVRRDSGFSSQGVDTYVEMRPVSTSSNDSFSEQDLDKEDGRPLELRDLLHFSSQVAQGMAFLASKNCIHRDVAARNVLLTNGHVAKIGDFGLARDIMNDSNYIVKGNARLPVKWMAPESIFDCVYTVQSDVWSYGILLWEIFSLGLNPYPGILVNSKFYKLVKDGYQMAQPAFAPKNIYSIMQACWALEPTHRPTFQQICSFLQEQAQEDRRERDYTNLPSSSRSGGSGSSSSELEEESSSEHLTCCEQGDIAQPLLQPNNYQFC", "test": "Kinome analysis (panel of kinases)", "format": "biochemical", "procedure": "as §1"}, "[6]": {"test_system": "PI3KCγ", "test": "Kinome analysis (panel of kinases)", "format": "biochemical", "conditions": "1 μM", "procedure": "as §1"}, "[7]": {"target": "MAPKAPKV (PRAK) (Homo sapiens, UniProt Q8IW41)", "sequence (Q8IW41 whole entry, species assumed)": "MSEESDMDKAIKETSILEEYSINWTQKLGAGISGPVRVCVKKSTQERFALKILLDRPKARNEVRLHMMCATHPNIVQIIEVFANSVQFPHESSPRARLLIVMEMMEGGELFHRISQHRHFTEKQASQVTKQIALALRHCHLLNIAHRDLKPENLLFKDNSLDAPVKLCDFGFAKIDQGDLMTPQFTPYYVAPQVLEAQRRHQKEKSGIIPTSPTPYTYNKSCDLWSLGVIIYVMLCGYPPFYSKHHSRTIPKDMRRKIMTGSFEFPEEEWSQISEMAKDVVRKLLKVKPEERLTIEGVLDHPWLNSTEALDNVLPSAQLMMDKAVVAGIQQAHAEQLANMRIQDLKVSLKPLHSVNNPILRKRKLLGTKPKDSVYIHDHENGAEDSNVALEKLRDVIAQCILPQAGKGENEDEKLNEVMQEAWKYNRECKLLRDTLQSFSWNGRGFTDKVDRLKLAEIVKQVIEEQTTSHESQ", "test": "Kinome analysis (panel of kinases)", "format": "biochemical", "conditions": "read-out: MAPKAPKV (PRAK) inhibition", "procedure": "as §1"}, "[8]": {"target": "MSSK1 (Homo sapiens, UniProt Q9UPE1)", "test": "Kinome analysis (panel of kinases)", "format": "biochemical", "procedure": "as §1"}, "[9]": {"target": "EphB4 (Homo sapiens, UniProt P54760)", "test": "Kinome analysis (panel of kinases)", "format": "biochemical", "procedure": "as §1"}, "[10]": {"target": "Pim1 (Homo sapiens, UniProt P11309)", "sequence (P11309 whole entry, species assumed)": "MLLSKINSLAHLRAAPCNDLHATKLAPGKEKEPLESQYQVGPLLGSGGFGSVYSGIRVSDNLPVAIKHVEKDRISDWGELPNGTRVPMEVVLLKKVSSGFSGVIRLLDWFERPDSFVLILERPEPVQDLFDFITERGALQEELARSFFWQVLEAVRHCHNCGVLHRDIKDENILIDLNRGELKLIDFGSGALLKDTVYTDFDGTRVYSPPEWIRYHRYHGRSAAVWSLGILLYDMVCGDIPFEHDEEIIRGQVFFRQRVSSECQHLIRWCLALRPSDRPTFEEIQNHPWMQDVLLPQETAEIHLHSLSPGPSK", "test": "Kinome analysis (panel of kinases)", "format": "biochemical", "procedure": "as §1"}, "[11]": {"target": "KDR (Homo sapiens, UniProt P35968)", "test": "Kinome analysis (panel of kinases)", "format": "biochemical", "procedure": "as §1"}, "[12]": {"target": "eEF-2K (Homo sapiens, UniProt O00418)", "test": "Kinome analysis (panel of kinases)", "format": "biochemical", "procedure": "as §1"}, "[13]": {"target": "GRK1 (Homo sapiens, UniProt Q15835)", "test": "Kinome analysis (panel of kinases)", "format": "biochemical", "procedure": "as §1"}, "[14]": {"target": "CK1 γ2 (Homo sapiens, UniProt P78368)", "sequence (P78368 whole entry)": "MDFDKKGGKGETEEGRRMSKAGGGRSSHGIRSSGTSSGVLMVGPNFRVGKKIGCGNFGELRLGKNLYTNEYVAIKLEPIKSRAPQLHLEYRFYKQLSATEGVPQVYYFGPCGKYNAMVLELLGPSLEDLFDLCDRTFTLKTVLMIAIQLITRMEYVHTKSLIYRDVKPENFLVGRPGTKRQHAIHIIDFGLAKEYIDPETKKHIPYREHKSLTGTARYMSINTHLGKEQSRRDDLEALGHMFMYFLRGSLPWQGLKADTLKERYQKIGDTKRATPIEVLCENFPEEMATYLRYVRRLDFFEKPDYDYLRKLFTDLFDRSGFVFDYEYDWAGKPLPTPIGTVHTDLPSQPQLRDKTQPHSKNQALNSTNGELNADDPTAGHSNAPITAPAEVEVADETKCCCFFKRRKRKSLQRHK", "test": "Kinome analysis (panel of kinases)", "format": "biochemical", "procedure": "as §1"}, "[15]": {"target": "PAK5 (Homo sapiens, UniProt Q9P286)", "sequence (Q9P286 whole entry)": "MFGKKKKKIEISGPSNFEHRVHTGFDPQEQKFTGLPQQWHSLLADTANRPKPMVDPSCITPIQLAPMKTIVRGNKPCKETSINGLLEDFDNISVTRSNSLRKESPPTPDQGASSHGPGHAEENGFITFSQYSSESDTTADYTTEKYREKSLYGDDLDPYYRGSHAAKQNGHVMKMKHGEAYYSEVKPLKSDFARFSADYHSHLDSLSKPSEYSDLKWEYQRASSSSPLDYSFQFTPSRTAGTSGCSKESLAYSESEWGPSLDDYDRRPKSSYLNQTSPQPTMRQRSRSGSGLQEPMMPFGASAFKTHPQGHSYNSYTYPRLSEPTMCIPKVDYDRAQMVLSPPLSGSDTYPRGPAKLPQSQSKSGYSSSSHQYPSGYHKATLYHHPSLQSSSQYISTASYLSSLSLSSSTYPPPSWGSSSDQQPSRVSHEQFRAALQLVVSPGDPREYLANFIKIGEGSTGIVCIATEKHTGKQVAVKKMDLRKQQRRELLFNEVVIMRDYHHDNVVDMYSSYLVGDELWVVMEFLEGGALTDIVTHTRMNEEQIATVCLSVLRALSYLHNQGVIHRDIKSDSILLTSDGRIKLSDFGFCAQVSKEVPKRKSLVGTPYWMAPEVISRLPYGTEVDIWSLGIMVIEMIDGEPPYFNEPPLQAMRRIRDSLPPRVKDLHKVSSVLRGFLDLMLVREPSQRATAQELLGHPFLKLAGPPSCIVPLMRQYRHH", "test": "Kinome analysis (panel of kinases)", "format": "biochemical", "procedure": "as §1"}, "[16]": {"target": "IGF-1R (Homo sapiens, UniProt P08069)", "sequence (P08069 31-1367, species assumed)": "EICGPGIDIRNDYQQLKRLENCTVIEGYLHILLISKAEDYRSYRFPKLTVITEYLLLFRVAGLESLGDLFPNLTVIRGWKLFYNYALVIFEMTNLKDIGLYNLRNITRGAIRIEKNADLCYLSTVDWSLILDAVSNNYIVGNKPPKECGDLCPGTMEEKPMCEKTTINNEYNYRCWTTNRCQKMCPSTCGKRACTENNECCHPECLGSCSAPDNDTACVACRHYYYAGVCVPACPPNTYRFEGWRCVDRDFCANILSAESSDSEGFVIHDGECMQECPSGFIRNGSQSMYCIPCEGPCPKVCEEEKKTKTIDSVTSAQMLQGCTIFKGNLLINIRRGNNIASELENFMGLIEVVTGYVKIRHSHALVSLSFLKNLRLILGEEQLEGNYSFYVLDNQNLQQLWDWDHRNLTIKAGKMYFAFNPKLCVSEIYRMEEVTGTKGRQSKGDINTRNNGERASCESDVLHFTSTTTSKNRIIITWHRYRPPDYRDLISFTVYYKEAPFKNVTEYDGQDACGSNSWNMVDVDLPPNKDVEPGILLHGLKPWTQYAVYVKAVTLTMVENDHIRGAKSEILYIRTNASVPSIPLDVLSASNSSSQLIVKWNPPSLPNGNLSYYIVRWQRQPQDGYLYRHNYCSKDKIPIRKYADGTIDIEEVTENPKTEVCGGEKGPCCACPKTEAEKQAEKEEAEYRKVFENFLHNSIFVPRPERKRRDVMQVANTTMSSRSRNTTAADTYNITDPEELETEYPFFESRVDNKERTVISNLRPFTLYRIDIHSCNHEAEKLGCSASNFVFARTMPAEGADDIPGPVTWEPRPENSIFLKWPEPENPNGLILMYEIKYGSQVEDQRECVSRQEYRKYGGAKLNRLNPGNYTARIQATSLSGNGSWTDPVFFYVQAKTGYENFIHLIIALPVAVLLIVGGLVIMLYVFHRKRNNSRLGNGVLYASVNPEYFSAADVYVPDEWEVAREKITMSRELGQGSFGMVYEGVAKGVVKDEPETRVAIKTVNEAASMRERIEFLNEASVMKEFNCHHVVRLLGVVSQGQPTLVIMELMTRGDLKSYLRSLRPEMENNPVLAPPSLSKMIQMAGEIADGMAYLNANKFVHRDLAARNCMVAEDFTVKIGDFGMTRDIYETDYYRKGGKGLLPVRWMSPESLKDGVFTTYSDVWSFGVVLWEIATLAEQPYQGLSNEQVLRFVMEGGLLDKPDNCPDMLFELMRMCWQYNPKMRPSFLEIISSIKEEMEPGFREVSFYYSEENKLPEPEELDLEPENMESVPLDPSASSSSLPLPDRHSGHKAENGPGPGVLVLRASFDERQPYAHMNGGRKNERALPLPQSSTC", "test": "Kinome analysis (panel of kinases)", "format": "biochemical", "procedure": "as §1"}, "[17]": {"target": "MAPKAP-KII (Homo sapiens, UniProt P49137)", "sequence (P49137 whole entry)": "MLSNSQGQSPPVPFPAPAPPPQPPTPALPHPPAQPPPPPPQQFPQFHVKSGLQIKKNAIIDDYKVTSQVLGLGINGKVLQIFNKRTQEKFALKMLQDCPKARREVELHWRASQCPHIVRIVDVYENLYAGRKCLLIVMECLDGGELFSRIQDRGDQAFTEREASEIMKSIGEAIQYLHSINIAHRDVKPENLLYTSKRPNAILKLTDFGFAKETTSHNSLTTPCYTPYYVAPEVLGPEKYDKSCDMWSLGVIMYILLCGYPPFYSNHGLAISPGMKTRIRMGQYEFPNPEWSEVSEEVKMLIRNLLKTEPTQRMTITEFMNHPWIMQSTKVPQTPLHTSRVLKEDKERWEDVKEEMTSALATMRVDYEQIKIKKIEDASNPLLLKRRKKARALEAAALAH", "test": "Kinome analysis (panel of kinases)", "format": "biochemical", "procedure": "as §1"}}}
{"smiles": "CCn1cc(NC(=S)Nc2cc(Cl)ccc2OC)c(C(N)=O)n1", "note": "[FPH1, 4-(3-(5-chloro-2-methoxyphenyl)thioureido)-1-ethyl-1H-pyrazole-3-carboxamide]", "values": [{"measurement": "increase in the area of albumin-positive colonies", "setting": "[1]; 20 μM on days 1 and 5, 7 days culture", "result": "up to 6.6 fold"}, {"measurement": "degree of proliferation (cell counting, FACS)", "setting": "[1]; 7 days", "result": "strongest proliferation inducer"}, {"measurement": "number of hepatocytes by FACS", "setting": "[2]; day seven, all donors", "result": "increase"}, {"measurement": "Ki67 staining co-localized with albumin labeled hepatocytes", "setting": "[2]; six additional cell sources, six days in culture", "result": "increased"}, {"measurement": "number of nuclei undergoing mitosis", "setting": "[3]", "result": "elevated"}, {"measurement": "increase in hepatocyte nuclei numbers during primary screening", "setting": "[3]; 15 μM, 48 hours", "result": 1.5, "unit": "×"}, {"measurement": "inhibition at 1 µM", "setting": "[4]", "result": "6.7 to 18.4", "unit": "%"}, {"measurement": "inhibition at 1 µM", "setting": "[5]", "result": 23, "unit": "%"}, {"measurement": "remaining activity at 1 µM", "setting": "[5]", "result": 77, "unit": "%"}, {"measurement": "PI3KCγ inhibition", "setting": "[6]", "result": "6.7-18.4%"}, {"measurement": "inhibition at 1 µM", "setting": "[7]", "result": "6.7 to 18.4", "unit": "%"}, {"measurement": "inhibition at 1 µM", "setting": "[8]", "result": "6.7 to 18.4", "unit": "%"}, {"measurement": "inhibition at 1 µM", "setting": "[9]", "result": "6.7 to 18.4", "unit": "%"}, {"measurement": "inhibition at 1 µM", "setting": "[10]", "result": "6.7 to 18.4", "unit": "%"}, {"measurement": "inhibition at 1 µM", "setting": "[11]", "result": "6.7 to 18.4", "unit": "%"}, {"measurement": "inhibition at 1 µM", "setting": "[12]", "result": "6.7 to 18.4", "unit": "%"}, {"measurement": "inhibition at 1 µM", "setting": "[13]", "result": "6.7 to 18.4", "unit": "%"}, {"measurement": "inhibition at 1 µM", "setting": "[14]", "result": "6.7 to 18.4", "unit": "%"}, {"measurement": "inhibition at 1 µM", "setting": "[15]", "result": "6.7 to 18.4", "unit": "%"}, {"measurement": "inhibition at 1 µM", "setting": "[16]", "result": 21, "unit": "%"}, {"measurement": "remaining activity at 1 µM", "setting": "[16]", "result": 79, "unit": "%"}, {"measurement": "inhibition at 1 µM", "setting": "[17]", "result": "6.7 to 18.4", "unit": "%"}]}
